Measured values as given in EP4198126B1 (priority 2021, dated 2023).
Like-named read-outs stand apart in the source and are kept apart here.

Legend:
HEK293 eTLR cells [1] = conditions: for HDR rates: compounds added 24 hours post-transfection, FACS 72 h after transfection, Figure 2A
HEK293 eTLR cells [2] = conditions: treated four hours before transfection; FACS 72 h after transfection; Figure 3
[3] = tested on: CRISPR-mediated homology-directed repair (HDR); conditions: description of the known compound; cited from earlier work

Cc1cc2ncnn2cc1Nc1ncc2c(n1)n(C1CCOCC1)c(=O)n2C [AZD-7648]
HDR rates (HEK293 eTLR cells [1]): increased HDR rates | concentration at which the HDR rates are maximally increased (HEK293 eTLR cells [1]; range tested 0.5 to 2 µM, Figure 2B): 0.5 µM | HDR rates (HEK293 eTLR cells [2]): significantly higher HDR rates than ITD Alt-R HDR Enhancer V2

c1cnccn1 [SCR7 pyrazine]
enhancement of CRISPR-mediated homology-directed repair (HDR) [3]: up to 19 fold

NU7441
HDR rates (HEK293 eTLR cells [1]): increased HDR rates

COc1ccc([C@@H](O)c2cc(-c3ncnc4cc(N5CCOCC5)ccc34)c(F)cc2Cl)nn1 [M3814]
HDR rates (HEK293 eTLR cells [1]): increased HDR rates | HDR rates (HEK293 eTLR cells [2]): significantly higher HDR rates than ITD Alt-R HDR Enhancer V2
